According to ChEMBL document CHEMBL3822408, “Synthesis and antimicrobial evaluation of novel ethyl 2-(2-(4-substituted)acetamido)-4-subtituted-thiazole-5-carboxylate derivatives” (2016):
Converted amounts (≈) assume the structure as drawn.

Key:
Type in all cases: functional
Escherichia coli = assay: Antibacterial activity against Escherichia coli NCIM 2256 by broth dilution method
Candida albicans = assay: Antifungal activity against Candida albicans by broth dilution method
Aspergillus niger = assay: Antifungal activity against Aspergillus niger by broth dilution method
Staphylococcus aureus = assay: Antibacterial activity against Staphylococcus aureus NCIM 2901 by broth dilution method
Bacillus subtilis = assay: Antibacterial activity against Bacillus subtilis NCIM 2063 by broth dilution method
Aspergillus flavus = assay: Antifungal activity against Aspergillus flavus by broth dilution method

Structure (SMILES) | MIC (Escherichia coli) [µg/mL] | MIC (Candida albicans) [µg/mL] | MIC (Aspergillus niger) [µg/mL] | MIC (Staphylococcus aureus) [µg/mL] | MIC (Bacillus subtilis) [µg/mL] | MIC (Aspergillus flavus) [µg/mL]
CC(=O)c1sc(NC(=O)CN2CCC(Cc3ccccc3)CC2)nc1C | 60 (≈ 162 µM) | 100 (≈ 269 µM) | 50 (≈ 135 µM) | 50 (≈ 135 µM) | 35 (≈ 94.2 µM) | 50 (≈ 135 µM)
CCOC(=O)c1sc(NC(=O)CN2CCCCC2)nc1C | 60 (≈ 193 µM) | 75 (≈ 241 µM) | 100 (≈ 321 µM) | 100 (≈ 321 µM) | 45 (≈ 145 µM) | 100 (≈ 321 µM)
CCOC(=O)c1sc(NC(=O)CN2CCC(C)CC2)nc1C | 50 (≈ 154 µM) | 75 (≈ 230 µM) | 50 (≈ 154 µM) | 70 (≈ 215 µM) | 35 (≈ 108 µM) | 50 (≈ 154 µM)
COC(=O)c1sc(NC(=O)CN2CCC(Cc3ccccc3)CC2)nc1C1CC1 | 29 (≈ 70.1 µM) | 25 (≈ 60.5 µM) | 12.5 (≈ 30.2 µM) | 28 (≈ 67.7 µM) | 29 (≈ 70.1 µM) | 12.5 (≈ 30.2 µM)
CCOC(=O)c1sc(NC(=O)CN2CCC(Cc3ccccc3)CC2)nc1CC | 100 (≈ 241 µM) | 75 (≈ 180 µM) | 100 (≈ 241 µM) | 100 (≈ 241 µM) | 40 (≈ 96.3 µM) | 100 (≈ 241 µM)
COC(=O)c1cnc(NC(=O)CN2CCC(Cc3ccccc3)CC2)s1 | 60 (≈ 161 µM) | 100 (≈ 268 µM) | 50 (≈ 134 µM) | 50 (≈ 134 µM) | 35 (≈ 93.7 µM) | 50 (≈ 134 µM)
CCOC(=O)c1cnc(NC(=O)CN2CCC(Cc3ccccc3)CC2)s1 | 29 (≈ 74.8 µM) | 25 (≈ 64.5 µM) | 12.5 (≈ 32.3 µM) | 28 (≈ 72.3 µM) | 29 (≈ 74.8 µM) | 12.5 (≈ 32.3 µM)
CCOC(=O)c1sc(NC(=O)CN2CCC(Cc3ccccc3)CC2)nc1C | 50 (≈ 125 µM) | 75 (≈ 187 µM) | 50 (≈ 125 µM) | 70 (≈ 174 µM) | 35 (≈ 87.2 µM) | 50 (≈ 125 µM)
Cc1csc(NC(=O)CN2CCC(Cc3ccccc3)CC2)n1 | 50 (≈ 152 µM) | 75 (≈ 228 µM) | 50 (≈ 152 µM) | 70 (≈ 212 µM) | 35 (≈ 106 µM) | 50 (≈ 152 µM)
CCOC(=O)c1sc(NC(=O)CN2CCC(c3ccccc3)CC2)nc1C | 29 (≈ 74.8 µM) | 25 (≈ 64.5 µM) | 25 (≈ 64.5 µM) | 30 (≈ 77.4 µM) | 28 (≈ 72.3 µM) | 12.5 (≈ 32.3 µM)
Cc1nc(NC(=O)CN2CCC(Cc3ccccc3)CC2)sc1C | 29 (≈ 84.4 µM) | 25 (≈ 72.8 µM) | 12.5 (≈ 36.4 µM) | 30 (≈ 87.3 µM) | 28 (≈ 81.5 µM) | 12.5 (≈ 36.4 µM)
CCOC(=O)c1sc(NC(=O)CN2CCC(Cc3ccccc3)CC2)nc1-c1ccccc1 | 29 (≈ 62.6 µM) | 50 (≈ 108 µM) | 25 (≈ 53.9 µM) | 28 (≈ 60.4 µM) | 25 (≈ 53.9 µM) | 25 (≈ 53.9 µM)
OC(Cn1cncn1)(Cn1cncn1)c1ccc(F)cc1F [FLUCONAZOLE] | – | 40 (≈ 131 µM) | 25 (≈ 81.6 µM) | – | – | 25 (≈ 81.6 µM)
C[C@H]1COc2c(N3CCN(C)CC3)c(F)cc3c(=O)c(C(=O)O)cn1c23.C[C@H]1COc2c(N3CCN(C)CC3)c(F)cc3c(=O)c(C(=O)O)cn1c23.O [LEVOFLOXACIN] | 29 | – | – | 28 | 29 | –
Clc1ccc(COC(Cn2ccnc2)c2ccc(Cl)cc2Cl)c(Cl)c1 (stereo unspecified) [MICONAZOLE] | – | 12.5 (≈ 30 µM) | 12.5 (≈ 30 µM) | – | – | 12.5 (≈ 30 µM)
